Data taken from patent US12410208B2, “(2-acetamidyl)thio-beta-D-galactopyranoside derivatives” (Idorsia Pharmaceuticals Ltd, priority 2020, dated 2025).

Columns and labels:
[1] = target: biotinylated human Gal-3 (hGal-3) (Homo sapiens, UniProt P17931); experiment: Competitive binding assay: biotinylated hGal-3 binding to microplate-adsorbed asialofetuin (ASF), spectrophotometric; conditions: Gal-3 inhibition, Table 5; read-out: IC50
In short: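 Competitive binding of biotinylated hGal-3 to plate-adsorbed asialofetuin was measured with serially diluted compounds over 3 h at 4° C. Bound protein was detected with streptavidin-peroxidase and ABTS substrate by absorbance. IC50 values are means of several measurements.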

[2] = target: human Gal-1 (hGal-1) (Homo sapiens, UniProt P09382); experiment: Competitive binding assay: biotinylated hGal-1 binding to microplate-adsorbed asialofetuin (ASF), spectrophotometric; conditions: hGal-1 binding to asialofetuin; Table 15; R and S epimers of selected Examples also listed; read-out: IC50 (Galectin-1 inhibition)
Chain of human Gal-1 (hGal-1) (P09382 whole entry): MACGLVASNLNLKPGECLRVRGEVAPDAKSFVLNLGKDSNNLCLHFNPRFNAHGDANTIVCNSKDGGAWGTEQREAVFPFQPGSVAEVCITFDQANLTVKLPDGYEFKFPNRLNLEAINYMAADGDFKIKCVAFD
In short: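 Biotinylated hGal-1 (300-1000 ng/mL) incubated with compound on asialofetuin-coated plates 3 hours at 4 °C, washed, then streptavidin-peroxidase (80 ng/mL) 1 hour at 4 °C. ABTS substrate read spectrophotometrically; IC50 reported as mean of several measurements.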

Chain of biotinylated human Gal-3 (hGal-3) (P17931 whole entry): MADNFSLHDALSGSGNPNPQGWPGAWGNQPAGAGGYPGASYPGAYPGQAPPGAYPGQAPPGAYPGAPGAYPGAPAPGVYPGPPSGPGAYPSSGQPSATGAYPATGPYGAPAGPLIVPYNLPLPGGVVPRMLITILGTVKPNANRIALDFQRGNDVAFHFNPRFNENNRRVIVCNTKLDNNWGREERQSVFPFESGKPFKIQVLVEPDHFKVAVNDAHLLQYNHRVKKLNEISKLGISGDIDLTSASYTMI

Row | SMILES | IC50 [1] [nM] | IC50 [2] [nM]
1 | CN(CC(C)(C)F)C(=O)[C@H](S[C@@H]1O[C@H](CO)[C@H](O)[C@H](n2cc(-c3cc(F)c(F)c(F)c3)nn2)[C@H]1O)C1(O)CCC1 [Example 2.34.222R., (R)-2-(((2S,3R,4S,5R,6R)-3,5-Dihydroxy-6-(hydroxymethyl)-4-(4-(3,4,5-trifluorophenyl)-1H-1,2,3-triazol-1-yl)tetrahydro-2H-pyran-2-yl)thio)-N-(2-fluoro-2-methylpropyl)-2-(1-hydroxycyclobutyl)-N-methylacetamide] | 8610 | 46000
2 | CN(CC(C)(C)F)C(=O)[C@@H](S[C@@H]1O[C@H](CO)[C@H](O)[C@H](n2cc(-c3cc(F)c(F)c(F)c3)nn2)[C@H]1O)C1(O)CCC1 [Example 2.34.222S., (S)-2-(((2S,3R,4S,5R,6R)-3,5-Dihydroxy-6-(hydroxymethyl)-4-(4-(3,4,5-trifluorophenyl)-1H-1,2,3-triazol-1-yl)tetrahydro-2H-pyran-2-yl)thio)-N-(2-fluoro-2-methylpropyl)-2-(1-hydroxycyclobutyl)-N-methylacetamide] | 90 | 110
3 | CN(CC(C)(C)C)C(=O)C(S[C@@H]1O[C@H](CO)[C@H](O)[C@H](n2cc(-c3cc(F)c(F)c(F)c3)nn2)[C@H]1O)C1(O)CCC1 (stereo partly drawn) [Example 2.34.228., 2-(((2S,3R,4S,5R,6R)-3,5-Dihydroxy-6-(hydroxymethyl)-4-(4-(3,4,5-trifluorophenyl)-1H-1,2,3-triazol-1-yl)tetrahydro-2H-pyran-2-yl)thio)-2-(1-hydroxycyclobutyl)-N-methyl-N-neopentylacetamide] | 310 | 160
4 | CN(CC(C)(C)C)C(=O)[C@H](S[C@@H]1O[C@H](CO)[C@H](O)[C@H](n2cc(-c3cc(F)c(F)c(F)c3)nn2)[C@H]1O)C1(O)CCC1 [Example 2.34.228R., (R)-2-(((2S,3R,4S,5R,6R)-3,5-Dihydroxy-6-(hydroxymethyl)-4-(4-(3,4,5-trifluorophenyl)-1H-1,2,3-triazol-1-yl)tetrahydro-2H-pyran-2-yl)thio)-2-(1-hydroxycyclobutyl)-N-methyl-N-neopentylacetamide] | 5900 | 22600
5 | CN(CC(C)(C)C)C(=O)[C@@H](S[C@@H]1O[C@H](CO)[C@H](O)[C@H](n2cc(-c3cc(F)c(F)c(F)c3)nn2)[C@H]1O)C1(O)CCC1 [Example 2.34.228S., (S)-2-(((2S,3R,4S,5R,6R)-3,5-Dihydroxy-6-(hydroxymethyl)-4-(4-(3,4,5-trifluorophenyl)-1H-1,2,3-triazol-1-yl)tetrahydro-2H-pyran-2-yl)thio)-2-(1-hydroxycyclobutyl)-N-methyl-N-neopentylacetamide] | 120 | 90
6 | CCN(C)C(=O)C(S[C@@H]1O[C@H](CO)[C@H](O)[C@H](n2cc(-c3cc(F)c(F)c(F)c3)nn2)[C@H]1O)C1(O)CCCC1 (stereo partly drawn) [Example 2.38.203., 2-(((2S,3R,4S,5R,6R)-3,5-Dihydroxy-6-(hydroxymethyl)-4-(4-(3,4,5-trifluorophenyl)-1H-1,2,3-triazol-1-yl)tetrahydro-2H-pyran-2-yl)thio)-N-ethyl-2-(1-hydroxycyclopentyl)-N-methylacetamide] | 430 | 1130
7 | O=C(C(S[C@@H]1O[C@H](CO)[C@H](O)[C@H](n2cc(-c3cc(F)c(F)c(F)c3)nn2)[C@H]1O)C1(O)CCCC1)N1CCC1 (stereo partly drawn) [Example 2.38.206., 1-(Azetidin-1-yl)-2-(((2S,3R,4S,5R,6R)-3,5-dihydroxy-6-(hydroxymethyl)-4-(4-(3,4,5-trifluorophenyl)-1H-1,2,3-triazol-1-yl)tetrahydro-2H-pyran-2-yl)thio)-2-(1-hydroxycyclopentyl)ethan-1-one] | 230 | 770
8 | CN(CC(F)(F)F)C(=O)C(S[C@@H]1O[C@H](CO)[C@H](O)[C@H](n2cc(-c3cc(F)c(F)c(F)c3)nn2)[C@H]1O)C1(O)CCCC1 (stereo partly drawn) [Example 2.38.219., 2-(((2S,3R,4S,5R,6R)-3,5-Dihydroxy-6-(hydroxymethyl)-4-(4-(3,4,5-trifluorophenyl)-1H-1,2,3-triazol-1-yl)tetrahydro-2H-pyran-2-yl)thio)-2-(1-hydroxycyclopentyl)-N-methyl-N-(2,2,2-trifluoroethyl)acetamide] | 40 | 110
9 | CN(C(=O)C(S[C@@H]1O[C@H](CO)[C@H](O)[C@H](n2cc(-c3cc(F)c(F)c(F)c3)nn2)[C@H]1O)C1(O)CCCC1)C1CCC1 (stereo partly drawn) [Example 2.38.220., N-Cyclobutyl-2-(((2S,3R,4S,5R,6R)-3,5-dihydroxy-6-(hydroxymethyl)-4-(4-(3,4,5-trifluorophenyl)-1H-1,2,3-triazol-1-yl)tetrahydro-2H-pyran-2-yl)thio)-2-(1-hydroxycyclopentyl)-N-methylacetamide] | 30 | 20
10 | CN(CC(C)(C)C)C(=O)C(S[C@@H]1O[C@H](CO)[C@H](O)[C@H](n2cc(-c3cc(F)c(F)c(F)c3)nn2)[C@H]1O)C1(O)CCCC1 (stereo partly drawn) [Example 2.38.228., 2-(((2S,3R,4S,5R,6R)-3,5-Dihydroxy-6-(hydroxymethyl)-4-(4-(3,4,5-trifluorophenyl)-1H-1,2,3-triazol-1-yl)tetrahydro-2H-pyran-2-yl)thio)-2-(1-hydroxycyclopentyl)-N-methyl-N-neopentylacetamide] | 150 | 170
11 | CCN(C)C(=O)C(S[C@@H]1O[C@H](CO)[C@H](O)[C@H](n2cc(-c3cc(F)c(F)c(F)c3)nn2)[C@H]1O)C1(O)CCCCC1 (stereo partly drawn) [Example 2.39.203., 2-(((2S,3R,4S,5R,6R)-3,5-Dihydroxy-6-(hydroxymethyl)-4-(4-(3,4,5-trifluorophenyl)-1H-1,2,3-triazol-1-yl)tetrahydro-2H-pyran-2-yl)thio)-N-ethyl-2-(1-hydroxycyclohexyl)-N-methylacetamide] | 70 | 170
12 | O=C(C(S[C@@H]1O[C@H](CO)[C@H](O)[C@H](n2cc(-c3cc(F)c(F)c(F)c3)nn2)[C@H]1O)C1(O)CCCCC1)N1CCCCC1 (stereo partly drawn) [Example 2.39.208., 2-(((2S,3R,4S,5R,6R)-3,5-Dihydroxy-6-(hydroxymethyl)-4-(4-(3,4,5-trifluorophenyl)-1H-1,2,3-triazol-1-yl)tetrahydro-2H-pyran-2-yl)thio)-2-(1-hydroxycyclohexyl)-1-(piperidin-1-yl)ethan-1-one] | 20 | 70
13 | CN(CC(F)(F)F)C(=O)[C@H](S[C@@H]1O[C@H](CO)[C@H](O)[C@H](n2cc(-c3cc(F)c(F)c(F)c3)nn2)[C@H]1O)C1(O)CCCCC1 [Example 2.39.219R., (R)-2-(((2S,3R,4S,5R,6R)-3,5-Dihydroxy-6-(hydroxymethyl)-4-(4-(3,4,5-trifluorophenyl)-1H-1,2,3-triazol-1-yl)tetrahydro-2H-pyran-2-yl)thio)-2-(1-hydroxycyclohexyl)-N-methyl-N-(2,2,2-trifluoroethyl)acetamide] | 270 | 550
14 | CN(CC(F)(F)F)C(=O)[C@@H](S[C@@H]1O[C@H](CO)[C@H](O)[C@H](n2cc(-c3cc(F)c(F)c(F)c3)nn2)[C@H]1O)C1(O)CCCCC1 [Example 2.39.219S., (S)-2-(((2S,3R,4S,5R,6R)-3,5-Dihydroxy-6-(hydroxymethyl)-4-(4-(3,4,5-trifluorophenyl)-1H-1,2,3-triazol-1-yl)tetrahydro-2H-pyran-2-yl)thio)-2-(1-hydroxycyclohexyl)-N-methyl-N-(2,2,2-trifluoroethyl)acetamide] | 60 | 100
